One data set in a line: TGA-MS of solid forms. It counts as physicochemical. Particulars: for hygroscopicity: indicated by TGA-MS; for mass loss in TGA-MS between 25 and 200° C.: traces of H2O. The procedure:
The TGA was run with TA instruments, data were collected on a thermal balance (Q-5000, TA Instruments, New Castle, Del.) equipped with a data analyzer (Universal Analysis 2000, version 4.5A, TA Instruments, New Castle, Del.). During experiments, the furnace was purged with nitrogen at 60 mL/minute, while the balance chamber was purged at 40 mL/minute. Temperature of the TGA furnace was calibrated using curie points of […] and nickel. Sample size ranged from 2 to 20 mg, and a heating rate of 10° C./minute was used.
For TGA-MS, the thermogravimetric analysis part was the same as above. The mass of evolved gas was analyzed with […] GSD 301 T3 ThermoStar ([…] Vacuum, Asslar, Germany). The instrument was operated and data evaluated with Software Quadstar 32-bit (V7.01, Inficon, LI-9496 Balzers, Liechtenstein).

For data set [1], the system named is TNFα-induced NF-κB activation. Description: TNFα-induced NF-κB luciferase reporter, HeLa/NF-κB-Luc cells. The class given is cell-based. The following applies: Homo sapiens, 1 h pretreatment, TNFα 10 ng/mL 5 h. The text has this: NF-κB is a transcription factor that plays a central role in the regulation of many immune and inflammatory responses.
The test system of data set [2] is IFNγ-induced NO production. Description: IFNγ-induced NO production in RAW264.7 macrophages (Griess reagent). The class given is cell-based. The following applies: Mus musculus. The method, then:
(§1) Inhibition of IFNγ-induced NO production by AIMs is Nrf2-dependent (Dinkova-Kostova, 2005). […] Nitrite (NO2^−) levels in the media were measured as a surrogate for nitric oxide using the Griess reagent assay. Cell viability was assessed using the WST-1 assay. […] 63170, 63171, 63179, and 63189 are compounds of the formulas: […]
Background: Nitrite, measured by Griess reagent, commonly stands in for NO production.

A further data set deals with glutathione levels. Description: induction of glutathione levels, RAW264.7 mouse model. It counts as cell-based. The text has this:
Glutathione and NADPH are critical factors required for the maintenance of cellular redox capacity. […] Data shown are representative of two independent experiments.

Data set [3] concerns Nrf2 protein expression in SK-N-SH cells. In words: in-cell western NQO1 assay, SK-N-SH cells. It counts as cell-based. The following applies: Homo sapiens, 72 h, 3 days incubation, read-out: EC50 for induction of Nrf2 protein expression in SK-N-SH cells. The procedure: HMOX1 protein was not detected in untreated or RTA 408-treated SH-SY5Y cells. […] The same amount of 63170 (54.6 nM) was required.
The EC50 was measured using an in-cell western NQO1 assay where the cells were incubated with the compound under evaluation for 3 days. After incubation with the compound of interest, the cells were reacted with mouse NQO1 antibody and then the next day the cells were reacted with IRDye-800CW-anti-mouse IgG antibody. The target signals were visualized and then analyzed.

A further data set has as its system RAW264.7 cells. Description: WST-1 cell viability, RAW264.7. The class given is cell-based. The following applies: Mus musculus. The procedure: as §1
[4] abbreviates: 2 h pre-treatment, 20 ng/mL IFNγ 24 h, read-out: IC50, suppression of IFNγ-induced NO production.

Molecules are shown by their SMILES. Like-named read-outs stand apart in the source and are kept apart here.

For the compound `CC1(C)CC[C@]2(NC(=O)C(C)(F)F)CC[C@]3(C)[C@H](C(=O)C=C4[C@@]5(C)C=C(C#N)C(=O)C(C)(C)[C@@H]5CC[C@]43C)[C@@H]2C1` [Form A], in the data set “TGA-MS of solid forms”, the hygroscopicity entry is “slightly hygroscopic”; the “mass loss in TGA-MS between 25 and 200° C.” value is reported as around 0.5 wt.-%.
Taken in the same sequence, the figures for `CC1(C)CC[C@]2(NC(=O)C(C)(F)F)CC[C@]3(C)[C@H](C(=O)C=C4[C@@]5(C)C=C(C#N)C(=O)C(C)(C)[C@@H]5CC[C@]43C)[C@@H]2C1` [Form B] were “very slightly hygroscopic” and around 0.2 wt.-%.
In the case of `CC(=O)N[C@]12CCC(C)(C)C[C@H]1[C@H]1C(=O)C=C3[C@@]4(C)C=C(C#N)C(=O)C(C)(C)[C@@H]4CC[C@@]3(C)[C@]1(C)CC2` [compound 63170], the IC50 (usually the midpoint of a concentration-inhibition curve) in data set [1] stood at 953 nM; in data set [2] (setting [4]) it was 8 ± 3 nM. In addition, the EC50 (as a rule, the concentration that produces a half-maximal response) turned out to be 12.1 nM in the data set on glutathione levels and 54.6 nM in data set [3].
Take `CC1(C)CC[C@]2(NC(=O)C(F)(F)F)CC[C@]3(C)[C@H](C(=O)C=C4[C@@]5(C)C=C(C#N)C(=O)C(C)(C)[C@@H]5CC[C@]43C)[C@@H]2C1` [compound 63171]: the IC50 in data set [2] (setting [4]) was 6.9 ± 0.6 nM. Moreover, the EC50 in the data set with glutathione levels was determined as 23.2 nM; in data set [3], 122 nM.
Take `CC1(C)CC[C@]2(NC(=O)CC(F)(F)F)CC[C@]3(C)[C@H](C(=O)C=C4[C@@]5(C)C=C(C#N)C(=O)C(C)(C)[C@@H]5CC[C@]43C)[C@@H]2C1` [compound 63179]: the IC50 in data set [2] (unit given as nm, read-out: IC50, suppression of IFNγ-induced NO production) was 11 ± 2 nM. Besides, the EC50 in data set [3] was determined as 126 nM.
Turning to `CCC(=O)N[C@]12CCC(C)(C)C[C@H]1[C@H]1C(=O)C=C3[C@@]4(C)C=C(C#N)C(=O)C(C)(C)[C@@H]4CC[C@@]3(C)[C@]1(C)CC2` [compound 63189], the IC50 in data set [1] was 854 nM; in data set [2] (setting [4]), 7 ± 2 nM. Moreover, the 50% effective concentration (EC50) was determined as 16 nM in the data set with glutathione levels and 102 nM in data set [3].
As for `CC1(C)CC[C@]2(CO)CC[C@]3(C)[C@H](C(=O)C=C4[C@@]5(C)C=C(C#N)C(=O)C(C)(C)[C@@H]5CC[C@]43C)[C@@H]2C1` [compound 63355, reference compound], the IC50 in data set [2] (Table 15, read-out: NO IC50 (nM), RAW264.7) was 0.63 ± 0.06 nM; with RAW264.7 cells, 150 nM.

Values taken from patent US11873320B2 (REATA PHARMACEUTICALS HOLDINGS, LLC, priority 2013, dated 2024).
